Source: patent US11858900B2, “Fluorinated 2-amino-4-(substituted amino)phenyl carbamate derivatives” (OcuTerra Therapeutics, Inc., priority 2016, dated 2024)
Where two headings read alike, the source gives them in different places.

Legend:
[1] = target: T1, human Kv7.2/7.3 channels (Homo sapiens, UniProt O43525+O43526); test: Assessment of recombinantly expressed human Kv7.2/7.3 channel activation on SyncroPatch automated patch clamp platform; format: cell-based; conditions: for activation of Kv7.2/7.3 channels as measured by the SyncroPatch platform: FIGS. 2A-2G plots
T1 construct: expressed in transfected cells
T1 sequence (O43525 whole entry): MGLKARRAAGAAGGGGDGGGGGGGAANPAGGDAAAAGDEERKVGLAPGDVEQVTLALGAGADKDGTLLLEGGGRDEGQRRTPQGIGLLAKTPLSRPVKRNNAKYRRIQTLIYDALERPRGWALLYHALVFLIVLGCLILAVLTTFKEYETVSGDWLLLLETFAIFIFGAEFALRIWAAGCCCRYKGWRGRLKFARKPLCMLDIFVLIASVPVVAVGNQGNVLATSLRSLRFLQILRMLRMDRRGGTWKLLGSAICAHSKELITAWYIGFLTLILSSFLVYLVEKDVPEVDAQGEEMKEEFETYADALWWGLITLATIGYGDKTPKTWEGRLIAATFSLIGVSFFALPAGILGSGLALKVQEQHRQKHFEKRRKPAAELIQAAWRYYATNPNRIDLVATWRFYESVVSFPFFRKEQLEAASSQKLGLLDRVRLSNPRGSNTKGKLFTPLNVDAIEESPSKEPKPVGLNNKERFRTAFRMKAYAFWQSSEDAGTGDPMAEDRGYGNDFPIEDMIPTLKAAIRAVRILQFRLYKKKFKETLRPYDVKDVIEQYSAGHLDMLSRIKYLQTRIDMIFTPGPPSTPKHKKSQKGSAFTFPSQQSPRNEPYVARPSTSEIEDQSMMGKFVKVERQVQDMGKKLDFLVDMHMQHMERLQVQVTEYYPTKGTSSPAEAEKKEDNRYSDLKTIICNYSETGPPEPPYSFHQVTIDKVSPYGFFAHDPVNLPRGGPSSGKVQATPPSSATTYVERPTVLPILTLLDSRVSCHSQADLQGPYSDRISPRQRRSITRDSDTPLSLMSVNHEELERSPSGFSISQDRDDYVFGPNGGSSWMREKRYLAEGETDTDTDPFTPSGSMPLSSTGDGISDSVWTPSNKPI
T1 sequence (O43526 whole entry): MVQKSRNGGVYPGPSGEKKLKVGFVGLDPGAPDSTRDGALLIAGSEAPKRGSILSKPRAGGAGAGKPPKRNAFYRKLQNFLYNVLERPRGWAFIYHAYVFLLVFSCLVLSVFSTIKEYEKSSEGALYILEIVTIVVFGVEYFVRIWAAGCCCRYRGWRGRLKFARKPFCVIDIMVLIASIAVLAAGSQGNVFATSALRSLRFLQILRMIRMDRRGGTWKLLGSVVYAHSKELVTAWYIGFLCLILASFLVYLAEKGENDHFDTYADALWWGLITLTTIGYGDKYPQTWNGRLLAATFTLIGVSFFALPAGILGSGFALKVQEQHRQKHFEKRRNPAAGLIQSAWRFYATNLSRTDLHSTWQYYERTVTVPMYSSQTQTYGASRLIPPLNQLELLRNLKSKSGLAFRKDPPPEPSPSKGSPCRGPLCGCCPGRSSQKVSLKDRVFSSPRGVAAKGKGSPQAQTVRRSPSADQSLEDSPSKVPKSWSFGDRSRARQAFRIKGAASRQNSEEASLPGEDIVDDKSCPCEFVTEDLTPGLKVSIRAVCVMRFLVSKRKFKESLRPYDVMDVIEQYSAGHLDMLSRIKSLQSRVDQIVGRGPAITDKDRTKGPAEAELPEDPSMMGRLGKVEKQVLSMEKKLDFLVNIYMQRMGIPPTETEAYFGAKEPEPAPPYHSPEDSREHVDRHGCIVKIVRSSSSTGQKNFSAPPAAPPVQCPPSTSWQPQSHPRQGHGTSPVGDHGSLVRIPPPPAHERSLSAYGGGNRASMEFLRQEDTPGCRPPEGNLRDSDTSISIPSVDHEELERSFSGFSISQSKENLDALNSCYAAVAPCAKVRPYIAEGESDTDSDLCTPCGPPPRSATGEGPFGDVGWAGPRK
Experimental: The in vitro effects of a compound of the present application recombinantly expressed human Kv7.2/7.3 channels are assessed on Syncropatch high throughput electrophysiology platform.
Cell Preparations: CHO cells stably expressing human Kv7.2/7.3 channels were cultured in Ham's F-12 media (Hyclone, Cat #SH30022.02) supplemented with 10% Fetal Bovine Serum, 1×MEM non-essential amino acids, and 400m/ml G418 at 37° C. in 5% CO2. On the day of Syncropatch, the cells were washed once in DPBS (Hyclone, Cat #SH30028.03) for approximately 30 seconds. […] 10 ml of cold media (Ham's F-12 media (Hyclone, Cat #SH30022.02) supplemented with 10% Fetal Bovine Serum, 1×MEM non-essential amino acids, and 400m/ml G418) was added to inactivate Trypsin. The cells were then triturated until a single cell suspension was achieved, and the cell count was performed. The cells were then diluted to a concentration of 5×10^5/ml and placed into the “cell hotel” on the deck of the Syncropatch at 10° C. for about 1 hour to recover. 40 μL of the cell suspension was dispensed into each well of a 384-well Syncropatch chip by the onboard pipettor at the beginning of each Syncropatch assay.
Eight-point dose response curves were created by performing semi-log serial dilutions from 10 mM compound stock solutions in 100% DMSO. […] Final DMSO concentration in the assay was 0.3%. Final assay test concentrations were 30 μM to 0.01 μM or 1 μM to 0.0003 μM. Negative (0.3% DMSO) and positive (30 μM ML213) controls were included in each test run to assess pharmacological responsiveness.
Assessment Protocol: Electrophysiological studies of the compounds were performed using the Nanion SyncroPatch automated patch clamp platform.
Kv7 channels were evaluated using a voltage protocol in which cells were voltage-clamped at a holding potential of −110 mV. Potassium currents were activated with a series of voltage steps from −110 mV to +50 mV in 10 mV intervals with 5.5 seconds between successive voltage steps. Each voltage step was 3 seconds in duration and immediately followed by a 1 second voltage step to −120 mV to generate an inward “tail” current to allow construction of activation (G-V) curves by plotting normalized peak tail current versus the potential of the activating voltage step.
Data Analysis: Data was collected on the Syncropatch platform using PatchControl software (Nanion) and processed and analyzed using DataControl Software (Nanion). Normalized percent activation was calculated and activation curves were fit with a Boltzmann function to determine the midpoint voltage of activation (G-V midpoint) for both pre-compound and post-compound conditions for each of the 384-wells of a sealchip with Pipeline Pilot (Accelrys). The difference in G-V midpoint between pre-compound and post-compound conditions (A V0.5) was plotted as a function of concentration and concentration-response curves were fit with a three-parameter logistic equation {Y=Bottom+(Top−Bottom)/(1+10^(Log EC50−X))} for determination of the EC50 (Graphpad Prism).

[2] = in vivo; cited from earlier work
[3] = concentration-dependent shift in G-V midpoint of activation, CHO cells stably expressing human Kv7.2/7.3, SyncroPatch, read-out: EC50 (95% CI)

Work on C=CCN(Cc1ccc(F)cc1)c1ccc(NC(=O)OCC)c(N)c1F [Compound 1, ethyl (4-(allyl(4-fluorobenzyl)amino)-2-amino-3-fluorophenyl)carbamate] yielded an EC50 [1, 3] of 1000 to 5000 nM.
With C=CCN(Cc1ccc(C(F)(F)F)cc1)c1ccc(NC(=O)OCC)c(N)c1F [Compound 2, ethyl (4-(allyl(4-(trifluoromethyl)benzyl)amino)-2-amino-3-fluorophenyl)carbamate] the EC50 [1, 3] was 100 to 1000 nM.
For C=CCN(Cc1cccc(C(F)(F)F)c1)c1ccc(NC(=O)OCC)c(N)c1F [Compound 3, ethyl (4-(allyl(3-(trifluoromethyl)benzyl)amino)-2-amino-3-fluorophenyl)carbamate], the EC50 [1, 3] was 5000 to 25000 nM.
In the case of C=CCN(Cc1ccc(F)cc1)c1ccc(NC(=O)OCC)c(N)c1 [Compound 4, ethyl (4-(allyl(4-fluorobenzyl)amino)-2-aminophenyl)carbamate], the “activation of Kv7.2/7.3 channels as measured by the SyncroPatch platform” value (“activation of Kv7.2/7.3 channels” below) [1] is reported as “dose-dependent activation” and the EC50 [1, 3] is reported as 100 to 1000 nM.
For C=CCN(Cc1cccc(C(F)(F)F)c1)c1ccc(NC(=O)OCC)c(N)c1 [Compound 6, ethyl (4-(allyl(3-(trifluoromethyl)benzyl)amino)-2-aminophenyl)carbamate], the “activation of Kv7.2/7.3 channels” value [1] was “dose-dependent activation” and the EC50 [1, 3] was 100 to 1000 nM.
With C#CCN(Cc1ccc(F)cc1)c1ccc(NC(=O)OCC)c(N)c1F [Compound 7, ethyl (2-amino-3-fluoro-4-((4-fluorobenzyl)(prop-2-yn-1-yl)amino)phenyl)carbamate] the “activation of Kv7.2/7.3 channels” value [1] was “dose-dependent activation” and the EC50 [1, 3] was 100 to 1000 nM.
With C#CCN(Cc1ccc(C(F)(F)F)cc1)c1ccc(NC(=O)OCC)c(N)c1F [Compound 8, ethyl (2-amino-3-fluoro-4-(prop-2-yn-1-yl(4-(trifluoromethyl)benzyl)amino)phenyl)carbamate] the “activation of Kv7.2/7.3 channels” value [1] was “dose-dependent activation” and the EC50 [1, 3] was 100 to 1000 nM.
With C#CCN(Cc1cccc(C(F)(F)F)c1)c1ccc(NC(=O)OCC)c(N)c1F [Compound 9, ethyl (2-amino-3-fluoro-4-(prop-2-yn-1-yl(3-(trifluoromethyl)benzyl)amino)phenyl)carbamate] the EC50 [1, 3] was 100 to 1000 nM.
In the case of C#CCN(Cc1ccc(F)cc1)c1ccc(NC(=O)OCC)c(N)c1 [Compound 10, reference compound], the “activation of Kv7.2/7.3 channels” value [1] is reported as “dose-dependent activation” and the EC50 [1, 3] is reported as 1000 to 5000 nM.
Work on C#CCN(Cc1ccc(C(F)(F)F)cc1)c1ccc(NC(=O)OCC)c(N)c1 [Compound 11, ethyl (2-amino-4-(prop-2-yn-1-yl(4-(trifluoromethyl)benzyl)amino)phenyl)carbamate] yielded an EC50 [1, 3] of 100 to 1000 nM.
For C#CCN(Cc1cccc(C(F)(F)F)c1)c1ccc(NC(=O)OCC)c(N)c1 [Compound 12, ethyl (2-amino-4-(prop-2-yn-1-yl(3-(trifluoromethyl)benzyl)amino)phenyl)carbamate], the “activation of Kv7.2/7.3 channels” value [1] was “dose-dependent activation” and the EC50 [1, 3] was 100 to 1000 nM.
In the case of CCOC(=O)Nc1ccc(N2CCc3cc(F)ccc3C2)c(F)c1N [Compound 17, ethyl (2-amino-3-fluoro-4-(6-fluoro-3,4-dihydroisoquinolin-2(1H)-yl)phenyl)carbamate], the EC50 [1, 3] is reported as 100 to 1000 nM.
Compound CCOC(=O)Nc1ccc(N2CCc3ccc(C(F)(F)F)cc3C2)c(F)c1N [Compound 18, Ethyl (2-amino-3-fluoro-4-(7-(trifluoromethyl)-3,4-dihydroisoquinolin-2(1H)-yl)phenyl)carbamate] has an EC50 [1, 3] of 100 to 1000 nM.
Work on CCOC(=O)Nc1ccc(N2CCc3cc(C(F)(F)F)ccc3C2)c(F)c1N [Compound 19, ethyl (2-amino-3-fluoro-4-(6-(trifluoromethyl)-3,4-dihydroisoquinolin-2(1H)-yl)phenyl)carbamate] yielded an EC50 [1, 3] of 1000 to 5000 nM.
CCOC(=O)Nc1ccc(N2CCc3ccc(F)cc3C2)c(F)c1N [Compound 20, ethyl (2-amino-3-fluoro-4-(7-fluoro-3,4-dihydroisoquinolin-2(1H)-yl)phenyl)carbamate] showed an EC50 [1, 3] of 100 to 1000 nM.
CCOC(=O)Nc1ccc(N2CCc3cc(F)ccc3C2)cc1N [Compound 21, ethyl (2-amino-4-(6-fluoro-3,4-dihydroisoquinolin-2(1H)-yl)phenyl)carbamate] showed an EC50 [1, 3] of 1000 to 5000 nM.
Compound CCOC(=O)Nc1ccc(N2CCc3ccc(C(F)(F)F)cc3C2)cc1N [Compound 22, ethyl (2-amino-4-(7-(trifluoromethyl)-3,4-dihydroisoquinolin-2(1H)-yl)phenyl)carbamate] has an EC50 [1, 3] of 100 to 1000 nM.
Compound CCOC(=O)Nc1ccc(N2CCc3cc(C(F)(F)F)ccc3C2)cc1N [Compound 23, ethyl (2-amino-4-(6-(trifluoromethyl)-3,4-dihydroisoquinolin-2(1H)-yl)phenyl)carbamate] has an EC50 [1, 3] of 1000 to 5000 nM.
In the case of CCOC(=O)Nc1ccc(N2CCc3ccc(F)cc3C2)cc1N [Compound 24, ethyl (2-amino-4-(7-fluoro-3,4-dihydroisoquinolin-2(1H)-yl)phenyl)carbamate], the EC50 [1, 3] is reported as 1000 to 5000 nM.
In the case of CCOC(=O)Nc1c(N)cc(NCc2ccc(F)cc2)cc1F [Compound X, reference compound], the EC50 [1] is reported as 100 to 1000 nM and the “activation of Kv7.2/7.3 channels” value [1] is reported as “dose-dependent activation”.
For CCOC(=O)Nc1ccc(NCc2ccc(F)cc2)cc1N [Ezogabine, ethyl N-[2-amino-4-[(4-fluorophenyl)methylamino]phenyl]carbamate], the half-life [2] is listed as 8 h.
